Patent US20050020519A1, “Modulation of insulin-regulated aminopeptidase (irap)/angiotensin iv (at4) receptor activity” (priority 2001, published 2005)
Where no end group is shown, it is not given here.

Key:
AT4 receptor = molecular target: T1, AT4 receptor (Bos taurus, UniProt F1N1Q8); experiment: AT4 radioreceptor assay, ^125I-Ang IV binding to bovine adrenal membranes
T1 construct: from tissue; host or cells: bovine adrenal gland membranes
T1 sequence (F1N1Q8 1-1022): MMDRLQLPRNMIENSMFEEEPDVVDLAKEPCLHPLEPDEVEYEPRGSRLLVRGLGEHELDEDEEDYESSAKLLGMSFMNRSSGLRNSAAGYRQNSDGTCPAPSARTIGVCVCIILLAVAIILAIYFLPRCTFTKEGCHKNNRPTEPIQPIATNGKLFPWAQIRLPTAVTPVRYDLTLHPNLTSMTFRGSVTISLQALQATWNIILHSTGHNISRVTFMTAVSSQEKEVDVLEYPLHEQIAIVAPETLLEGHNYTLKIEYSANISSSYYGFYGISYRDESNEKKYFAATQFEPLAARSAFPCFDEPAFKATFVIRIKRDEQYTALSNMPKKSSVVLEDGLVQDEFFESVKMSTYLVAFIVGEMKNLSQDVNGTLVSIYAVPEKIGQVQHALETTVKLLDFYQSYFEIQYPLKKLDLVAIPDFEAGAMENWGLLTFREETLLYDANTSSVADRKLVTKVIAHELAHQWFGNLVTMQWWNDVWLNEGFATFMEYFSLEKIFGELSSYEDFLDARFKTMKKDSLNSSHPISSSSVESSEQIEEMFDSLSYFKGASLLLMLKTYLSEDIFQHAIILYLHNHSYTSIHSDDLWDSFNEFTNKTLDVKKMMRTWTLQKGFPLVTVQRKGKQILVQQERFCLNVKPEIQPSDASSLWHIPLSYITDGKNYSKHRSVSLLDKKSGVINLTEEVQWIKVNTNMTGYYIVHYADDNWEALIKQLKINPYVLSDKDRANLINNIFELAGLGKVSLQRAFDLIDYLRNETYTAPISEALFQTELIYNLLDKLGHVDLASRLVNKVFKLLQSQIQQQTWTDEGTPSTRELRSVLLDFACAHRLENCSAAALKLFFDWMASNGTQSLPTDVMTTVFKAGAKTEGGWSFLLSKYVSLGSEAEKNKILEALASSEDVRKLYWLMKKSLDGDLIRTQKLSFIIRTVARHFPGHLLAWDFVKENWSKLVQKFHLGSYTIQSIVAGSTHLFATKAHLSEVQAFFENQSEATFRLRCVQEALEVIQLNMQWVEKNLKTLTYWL
Description: The AT4 radioreceptor assay was used to screen the sheep brain extracts for AT4 receptor modulatory activity. The membranes were prepared using bovine adrenal glands obtained from the abattoir. The adrenals were diced, homogenized in ice-cold hypotonic buffer (50 mM Tris, 5 mM EDTA, pH 7.4) and centrifuged for 10 min at 500 g. […] The resulting pellets were re-homogenized in hypotonic buffer. […] The samples were incubated for 2 h at 37° C., and the bound ligand was separated on Whatman GF/B glass fibre filters.

IRAP = molecular target: T2, IRAP (Homo sapiens, UniProt Q9UIQ6); experiment: IRAP enzymatic activity, hydrolysis of L-leucine-β-naphthylamide (fluorescence); assay type: biochemical
T2 construct: expressed in transfected cells; host or cells: HEK 293T cells (solubilised membrane protein)
T2 sequence (Q9UIQ6 whole entry): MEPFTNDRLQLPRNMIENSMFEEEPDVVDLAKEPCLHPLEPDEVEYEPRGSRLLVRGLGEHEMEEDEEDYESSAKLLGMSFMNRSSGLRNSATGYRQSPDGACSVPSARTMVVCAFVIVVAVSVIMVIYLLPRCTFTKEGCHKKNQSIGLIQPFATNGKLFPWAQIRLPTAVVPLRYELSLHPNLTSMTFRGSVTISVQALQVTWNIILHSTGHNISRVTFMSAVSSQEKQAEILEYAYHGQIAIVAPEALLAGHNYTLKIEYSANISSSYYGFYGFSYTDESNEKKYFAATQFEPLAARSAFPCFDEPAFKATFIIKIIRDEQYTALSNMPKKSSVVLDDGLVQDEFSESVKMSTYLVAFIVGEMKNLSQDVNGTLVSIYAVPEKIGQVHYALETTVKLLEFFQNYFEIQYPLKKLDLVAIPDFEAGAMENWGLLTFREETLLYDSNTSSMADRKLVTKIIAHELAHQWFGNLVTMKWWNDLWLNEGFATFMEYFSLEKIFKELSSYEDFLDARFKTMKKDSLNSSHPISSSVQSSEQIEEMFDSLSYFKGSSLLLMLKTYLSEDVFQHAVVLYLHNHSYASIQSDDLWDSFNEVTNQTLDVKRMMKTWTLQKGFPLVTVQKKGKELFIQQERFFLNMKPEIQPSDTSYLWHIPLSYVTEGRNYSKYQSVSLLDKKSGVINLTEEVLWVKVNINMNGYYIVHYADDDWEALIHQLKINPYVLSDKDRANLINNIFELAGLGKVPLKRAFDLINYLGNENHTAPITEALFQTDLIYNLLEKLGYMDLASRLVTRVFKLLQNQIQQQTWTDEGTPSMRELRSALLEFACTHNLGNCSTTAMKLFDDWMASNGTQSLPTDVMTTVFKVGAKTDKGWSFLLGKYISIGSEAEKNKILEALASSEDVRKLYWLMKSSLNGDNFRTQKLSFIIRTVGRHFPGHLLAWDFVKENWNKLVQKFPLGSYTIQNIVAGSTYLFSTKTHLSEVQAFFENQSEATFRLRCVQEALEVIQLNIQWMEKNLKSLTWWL
Text: For example, Hek293 cells stably transfected with a eukaryotic expression vector expressing the AT4 receptor gene may be utilized. An example of this is the vector pcDNA-3 containing the cDNA encoding the full length AT4 receptor. Two assay systems are used, one for each spliced variant of the human AT4 receptor gene. The assay system involves the measurement of the rate of hydrolysis of L-leucyl β-naphthylamide by the AT4 receptor. The rate of hydrolysis by the transfected cells is followed by recording the increase in fluorescence (excitation at 340 nm, emission at 410 nm) using a purpose-designed fluorimeter. Test compounds are added to the assay system, and their effects on the hydrolysis of L-leucyl β-naphthylamide are a direct indicator of their modulation of AT4 receptor activity.
Crude membranes were prepared from HEK 293 cells stably transfected with pcDNA-3 containing the cDNA encoding the full length AT4 receptor/IRAP, using the same method as that described for bovine adrenal membranes. The membranes were solubilised in 50 mM Tris-HCl containing 1% Triton-X100 at 4° C. for 16 h. The IRAP enzymatic activity was determined by the hydrolysis of a synthetic substrate, L-leucine-β-naphthylamide, and monitored by the release of a fluorogenic product on a spectrophotometer set at excitation 340 nm and emission 410 nm. One hundred μM of the substrate was added to 10 μg of solubilised membranes, and the increase in fluorescence monitored for 10 min.
Samples were assayed 2-3 times in triplicate, except controls, which were performed 5 times in triplicate.

rats = experiment: Morris water maze, scopolamine-induced amnesia; assay type: in vivo, rat; conditions: 1 nmole icv after 70 nmole scopolamine
Text: The maze consisted of a circular tank, 1.6 m in diameter by 0.6 m in height, containing water to a depth of 30 cm. The room contained visual cues placed 40 cm from the edge of the tank. The rats were subjected to two days of familiarisation to the task, during which the escape pedestal is visible to the animals. During the acquisition phase, for the following 5 days, the water in the tank was rendered opaque, and the escape platform was submerged under the surface of the water. The animals had to rely on the visual cues around the room to find the submerged escape pedestal. The latency of the animal in finding the pedestal during the acquisition phase was taken as a measure of the spatial memory performance of the animal.
Rats were surgically implanted with cannulae in their lateral ventricles and allowed two to three days of recovery. During the familiarisation trials on days 1 and 2, the animals were placed in the water facing the wall of the tank from different starting positions equidistant from the escape pedestal. When the animals located and mounted the pedestal, they were allowed 30 seconds on the pedestal before the commencement of the next trial. Four consecutive trials were carried out on each animal on each day, and the mean latency period before the animal reached the pedestal was plotted. […]

For LVVYPWTQRF, which Ki (AT4 receptor) is on record?
The Ki was 0.001 to 0.005 µM.

And the Ki (IRAP)?
Its Ki is 0.845 µM.

And the “hydrolysis of L-leucine-β-naphthylamide by membranes containing IRAP” value (IRAP; 10 mM peptide)?
Its value is “totally abolished”.

What about the “type of inhibition of IRAP” value (IRAP; Lineweaver-Burk analysis) of the same sequence?
Its value is “competitive inhibitors”.

And the “latency in locating the submerged pedestal” value (rats)?
The value was “reversed the scopolamine-induced latency”.
